Activity calls are given as the source filed them.
Legend:
Ion channel NompC = Ion channel NompC (Danio rerio, UniProt Q7T1G6); test: Fluorescence counterscreen assay for TRPML3 agonists: dose response cell-based high-throughput screening assay to identify agonists of the transient receptor potential channel N1 (TRPN1). [Related pubchem assays: 1526, 1424, 1448 ]; format: functional
Mucolipin-3 = Mucolipin-3 (Homo sapiens, UniProt Q8TDD5); test: Dose response cell-based high-throughput screening assay for agonists of the transient receptor potential channel ML3 (TRPML3). [Related pubchem assays: 1526, 1424, 1448 ]; format: functional
Cytochrome P450 2C19 = Cytochrome P450 2C19 (Homo sapiens, UniProt P33261); test: Cytochrome panel assay with activity outcomes. Panel member name: p450-cyp2c19 Compounds with AC50 equal or less than 10 uM are considered active; format: functional
Cytochrome P450 2D6 = Cytochrome P450 2D6 (Homo sapiens, UniProt P10635);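 also: CYP2D6 member of a cytochrome P450 panel assay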
[1] = molecular target: Mothers against decapentaplegic homolog 3 (Homo sapiens, UniProt P84022); test: inhibitors of SMAD-driven TGF-beta signaling – dose response (AID 715); format: functional
[2] = viability loss in Vero cells – cytotoxicity control for Vif-APOBEC3G degradation inhibitor project, dose response (AID 1117358); format: functional; conditions: Vero
[3] = Trypanosoma cruzi growth suppression in host cells – NIH3T3 host cells, beta-gal luminescence, confirmation (AID 2044); format: functional, cell-based;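 also: intracellular parasites grown in NIH/3T3 mouse fibroblasts as host cells; luminescent beta-galactosidase reporter signal from transgenic T. cruzi replicating inside host cells; inhibitors lower the luminescence signal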
[4] = NIH3T3 cell viability loss – ATP luminescence, mouse fibroblasts, counter-screen, dose response (AID 2010); format: functional, cell-based;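 also: cells exposed to compound for about 90 hours before reading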
NADPH oxidase 1 = NADPH oxidase 1 (Homo sapiens, UniProt Q9Y5S8); format: functional, cell-based;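 also: Cell-based assay with luminescence read-out, IC50 derived from inhibitor dose-response curves; intracellular ROS from endogenous NOX1 in intact HT29 colon cancer cells; potency of inhibitors that lower the ROS luminescence signal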
[5] = viability of HCT116 lacking mutant beta-catenin – cell-based, human colon tumor, dose response (AID 1045); format: functional;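 also: HCT116 colon tumor cells with beta catenin knocked out; cells exposed to compound for 60 hours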
Estrogen receptor = molecular target: T1, Estrogen receptor (Homo sapiens, UniProt P03372); test: ERα coactivator recruitment enhancers – biochemical, TR-FRET, ERα LBD, dose response (AID 737)
T1 sequence (P03372 whole entry): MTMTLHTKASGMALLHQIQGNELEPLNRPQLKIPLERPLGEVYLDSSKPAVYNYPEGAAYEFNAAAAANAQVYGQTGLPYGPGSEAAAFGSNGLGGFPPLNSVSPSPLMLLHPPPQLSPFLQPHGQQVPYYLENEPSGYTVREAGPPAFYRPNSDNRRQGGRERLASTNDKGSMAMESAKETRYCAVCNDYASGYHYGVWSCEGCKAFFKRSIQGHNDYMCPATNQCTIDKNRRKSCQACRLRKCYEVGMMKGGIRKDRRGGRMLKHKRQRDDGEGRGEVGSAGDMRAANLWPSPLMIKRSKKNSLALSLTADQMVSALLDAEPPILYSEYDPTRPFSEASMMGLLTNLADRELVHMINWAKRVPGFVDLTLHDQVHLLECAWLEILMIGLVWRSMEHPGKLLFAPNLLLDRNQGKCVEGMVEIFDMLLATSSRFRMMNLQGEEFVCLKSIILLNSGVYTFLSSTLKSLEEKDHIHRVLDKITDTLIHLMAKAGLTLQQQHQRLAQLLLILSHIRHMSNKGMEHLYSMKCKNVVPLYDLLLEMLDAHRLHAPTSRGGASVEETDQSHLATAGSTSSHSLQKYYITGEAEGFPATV

[6] = viability of PTEN-deleted HCT116 cells – cell-based, HCT116 PTEN knockout, dose response (AID 1047); format: functional;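 also: HCT116 colon tumor cells with PTEN knocked out; cells exposed to compound for 60 hours before readout; potency for loss of cell viability measured by luminescence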
[7] = molecular target: Bifunctional protein GlmU (Mycobacterium tuberculosis, UniProt P9WMN3); test: Inhibitors of Mycobacterial Glucosamine-1-phosphate acetyl transferase (GlmU). Secondary screen.; parameters: species or system Mycobacterium tuberculosis H37Rv
Large T antigen = Large T antigen (Simian virus 40, UniProt P03070); format: functional, Betapolyomavirus macacae;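 also: Confirmatory-stage PubChem screen for compounds that inhibit SV40 T antigen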
Protein S100-A4 = Protein S100-A4 (Homo sapiens, UniProt P26447); test: human S100A4 peptide interaction inhibition curves – biochemical, fluorescence polarization, cherry-picked hits, dose response (AID 687001); format: functional
Nonstructural protein 1 = Nonstructural protein 1 (Influenza A virus, UniProt Q194T2); format: functional, Influenza A virus (A/California/07/2009(H1N1))
Cytochrome P450 3A4 = Cytochrome P450 3A4 (Homo sapiens, UniProt P08684);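 also: CYP3A4 tested as one member of a cytochrome P450 panel screen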
[8] = microbe, parasite or virus in culture; format: functional; conditions: Mycobacterium tuberculosis
[9] = A High Throughput Confirmatory Assay used to Identify Novel Compounds that Inhibit Mycobacterium Tuberculosis in the absence of Glycerol.; format: functional
Vero = test: mammalian cell viability reduction – secondary assay, cytotoxicity control for West Nile virus antiviral project, dose response (AID 1650); format: functional; conditions: Chlorocebus sabaeus
[10] = molecular target: Ubiquitin carboxyl-terminal hydrolase BAP1 (Homo sapiens, UniProt Q92560); test: inhibition of BAP1 ubiquitin hydrolase activity – biochemical, dose response (AID 714); format: functional
Caspase-6 = Caspase-6 (Homo sapiens, UniProt P55212); test: inhibition of CASP6 peptide cleavage – biochemical, VEID-R110 fluorescence, cherry-pick, dose response (AID 720632)
[11] = HIV-1 Vif–A3G interaction blockers – biochemical, TR-FRET, GST-Vif 1-94, biotin-A3G peptide, dose response retest, primary screen (AID 1117319); format: functional;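 also: TR-FRET signal of purified GST-Vif binding a biotinylated A3G peptide; inhibitors lower the FRET signal by blocking Vif and A3G binding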

Cytochrome P450 2D6, sequence (P10635 whole entry): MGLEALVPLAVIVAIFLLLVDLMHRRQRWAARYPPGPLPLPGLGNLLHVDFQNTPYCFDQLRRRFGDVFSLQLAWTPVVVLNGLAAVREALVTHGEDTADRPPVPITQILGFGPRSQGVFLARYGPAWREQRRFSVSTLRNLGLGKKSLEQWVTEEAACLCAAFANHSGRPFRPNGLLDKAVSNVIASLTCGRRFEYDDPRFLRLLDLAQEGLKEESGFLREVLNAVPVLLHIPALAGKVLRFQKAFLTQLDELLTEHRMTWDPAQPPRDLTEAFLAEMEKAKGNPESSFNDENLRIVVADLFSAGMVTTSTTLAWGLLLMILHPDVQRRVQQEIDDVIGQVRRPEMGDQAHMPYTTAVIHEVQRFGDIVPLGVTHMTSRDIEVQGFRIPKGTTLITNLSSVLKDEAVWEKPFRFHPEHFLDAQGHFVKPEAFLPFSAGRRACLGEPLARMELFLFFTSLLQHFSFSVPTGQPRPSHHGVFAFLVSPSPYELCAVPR
Large T antigen, sequence (P03070 whole entry): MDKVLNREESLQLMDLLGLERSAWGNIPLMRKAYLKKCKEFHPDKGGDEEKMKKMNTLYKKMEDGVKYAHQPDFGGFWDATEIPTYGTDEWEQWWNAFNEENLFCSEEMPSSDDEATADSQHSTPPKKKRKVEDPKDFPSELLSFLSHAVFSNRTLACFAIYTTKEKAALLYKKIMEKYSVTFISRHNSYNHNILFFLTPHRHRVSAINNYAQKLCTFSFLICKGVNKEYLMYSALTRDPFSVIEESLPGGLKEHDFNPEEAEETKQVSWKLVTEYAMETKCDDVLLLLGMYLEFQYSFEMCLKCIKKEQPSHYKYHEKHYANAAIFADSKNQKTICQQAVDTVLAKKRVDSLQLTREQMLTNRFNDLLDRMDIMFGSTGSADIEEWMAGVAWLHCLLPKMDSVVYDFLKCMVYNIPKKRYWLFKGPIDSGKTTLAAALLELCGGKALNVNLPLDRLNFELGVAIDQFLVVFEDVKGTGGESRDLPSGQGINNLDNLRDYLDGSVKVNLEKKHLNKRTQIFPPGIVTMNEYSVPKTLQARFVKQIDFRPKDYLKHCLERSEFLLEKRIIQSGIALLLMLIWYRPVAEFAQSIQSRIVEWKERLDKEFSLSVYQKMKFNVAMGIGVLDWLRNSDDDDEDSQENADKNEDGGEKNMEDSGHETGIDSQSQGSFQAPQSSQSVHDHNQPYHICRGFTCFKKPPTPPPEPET
Ion channel NompC, sequence (Q7T1G6 whole entry): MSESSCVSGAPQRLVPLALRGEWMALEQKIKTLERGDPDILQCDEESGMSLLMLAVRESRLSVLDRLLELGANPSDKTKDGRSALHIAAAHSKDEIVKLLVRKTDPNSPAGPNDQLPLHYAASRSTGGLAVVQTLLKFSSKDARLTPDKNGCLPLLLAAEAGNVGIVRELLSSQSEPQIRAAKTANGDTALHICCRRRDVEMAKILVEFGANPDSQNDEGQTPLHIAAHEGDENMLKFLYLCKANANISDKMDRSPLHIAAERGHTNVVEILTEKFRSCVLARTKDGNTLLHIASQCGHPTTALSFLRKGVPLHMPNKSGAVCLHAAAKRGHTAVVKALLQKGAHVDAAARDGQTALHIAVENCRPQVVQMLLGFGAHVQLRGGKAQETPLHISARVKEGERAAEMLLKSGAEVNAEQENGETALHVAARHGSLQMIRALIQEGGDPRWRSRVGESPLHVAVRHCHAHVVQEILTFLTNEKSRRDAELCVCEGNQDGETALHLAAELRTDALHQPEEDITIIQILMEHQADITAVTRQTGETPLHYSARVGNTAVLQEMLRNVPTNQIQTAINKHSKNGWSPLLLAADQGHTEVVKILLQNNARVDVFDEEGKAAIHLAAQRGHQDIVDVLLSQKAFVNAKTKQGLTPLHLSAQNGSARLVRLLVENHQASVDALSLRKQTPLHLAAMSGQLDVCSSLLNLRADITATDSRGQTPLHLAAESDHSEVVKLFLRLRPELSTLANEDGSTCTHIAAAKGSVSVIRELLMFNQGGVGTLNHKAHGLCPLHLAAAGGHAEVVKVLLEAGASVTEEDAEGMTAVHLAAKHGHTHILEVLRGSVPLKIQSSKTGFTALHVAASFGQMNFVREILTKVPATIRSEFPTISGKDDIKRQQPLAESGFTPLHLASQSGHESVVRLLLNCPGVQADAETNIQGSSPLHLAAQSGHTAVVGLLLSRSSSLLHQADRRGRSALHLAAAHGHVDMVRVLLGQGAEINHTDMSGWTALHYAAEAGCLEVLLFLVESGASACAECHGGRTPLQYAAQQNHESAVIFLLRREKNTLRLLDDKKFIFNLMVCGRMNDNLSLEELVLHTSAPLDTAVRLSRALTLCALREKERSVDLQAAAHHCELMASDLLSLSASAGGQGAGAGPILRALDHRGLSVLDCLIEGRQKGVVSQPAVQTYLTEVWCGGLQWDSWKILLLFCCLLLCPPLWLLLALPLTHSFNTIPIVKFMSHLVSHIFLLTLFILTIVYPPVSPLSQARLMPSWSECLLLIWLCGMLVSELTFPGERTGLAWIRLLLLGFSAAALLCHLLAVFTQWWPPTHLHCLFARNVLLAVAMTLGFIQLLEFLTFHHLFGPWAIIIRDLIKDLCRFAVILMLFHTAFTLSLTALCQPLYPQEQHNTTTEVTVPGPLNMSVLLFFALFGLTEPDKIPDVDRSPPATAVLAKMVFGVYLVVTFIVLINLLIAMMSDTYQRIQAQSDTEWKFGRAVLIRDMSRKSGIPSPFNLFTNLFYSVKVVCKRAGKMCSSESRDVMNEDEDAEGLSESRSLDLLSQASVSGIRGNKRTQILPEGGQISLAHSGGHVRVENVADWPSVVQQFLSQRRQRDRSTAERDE
NADPH oxidase 1, sequence (Q9Y5S8 whole entry): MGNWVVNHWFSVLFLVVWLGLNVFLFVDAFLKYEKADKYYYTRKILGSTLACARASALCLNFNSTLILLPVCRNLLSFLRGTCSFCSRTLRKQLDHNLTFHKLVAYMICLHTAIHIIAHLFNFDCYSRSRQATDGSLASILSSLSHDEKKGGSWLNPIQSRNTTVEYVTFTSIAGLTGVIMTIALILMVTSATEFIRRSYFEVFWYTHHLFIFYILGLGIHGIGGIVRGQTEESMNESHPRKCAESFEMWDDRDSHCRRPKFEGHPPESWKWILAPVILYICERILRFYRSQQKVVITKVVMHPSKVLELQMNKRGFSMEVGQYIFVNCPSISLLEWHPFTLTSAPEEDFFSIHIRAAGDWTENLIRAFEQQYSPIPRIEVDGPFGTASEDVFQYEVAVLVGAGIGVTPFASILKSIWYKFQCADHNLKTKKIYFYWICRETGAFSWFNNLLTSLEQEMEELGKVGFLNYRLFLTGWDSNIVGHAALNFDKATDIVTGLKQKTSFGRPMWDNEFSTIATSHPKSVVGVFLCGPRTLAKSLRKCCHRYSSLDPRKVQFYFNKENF
Cytochrome P450 3A4, sequence (P08684 whole entry): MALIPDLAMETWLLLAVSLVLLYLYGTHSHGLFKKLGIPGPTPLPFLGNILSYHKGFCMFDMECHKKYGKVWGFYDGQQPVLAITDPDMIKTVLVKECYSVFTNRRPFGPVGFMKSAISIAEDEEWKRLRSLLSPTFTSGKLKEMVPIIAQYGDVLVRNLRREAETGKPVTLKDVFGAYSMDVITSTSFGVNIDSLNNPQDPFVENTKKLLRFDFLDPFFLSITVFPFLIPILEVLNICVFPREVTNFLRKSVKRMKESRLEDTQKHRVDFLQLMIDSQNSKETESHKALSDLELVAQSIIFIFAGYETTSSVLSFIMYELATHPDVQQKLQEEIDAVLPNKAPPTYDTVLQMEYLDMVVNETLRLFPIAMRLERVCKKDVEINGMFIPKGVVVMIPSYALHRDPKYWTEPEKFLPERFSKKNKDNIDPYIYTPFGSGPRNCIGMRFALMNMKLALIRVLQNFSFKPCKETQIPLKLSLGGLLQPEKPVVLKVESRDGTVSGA
Ubiquitin carboxyl-terminal hydrolase BAP1, sequence (Q92560 whole entry): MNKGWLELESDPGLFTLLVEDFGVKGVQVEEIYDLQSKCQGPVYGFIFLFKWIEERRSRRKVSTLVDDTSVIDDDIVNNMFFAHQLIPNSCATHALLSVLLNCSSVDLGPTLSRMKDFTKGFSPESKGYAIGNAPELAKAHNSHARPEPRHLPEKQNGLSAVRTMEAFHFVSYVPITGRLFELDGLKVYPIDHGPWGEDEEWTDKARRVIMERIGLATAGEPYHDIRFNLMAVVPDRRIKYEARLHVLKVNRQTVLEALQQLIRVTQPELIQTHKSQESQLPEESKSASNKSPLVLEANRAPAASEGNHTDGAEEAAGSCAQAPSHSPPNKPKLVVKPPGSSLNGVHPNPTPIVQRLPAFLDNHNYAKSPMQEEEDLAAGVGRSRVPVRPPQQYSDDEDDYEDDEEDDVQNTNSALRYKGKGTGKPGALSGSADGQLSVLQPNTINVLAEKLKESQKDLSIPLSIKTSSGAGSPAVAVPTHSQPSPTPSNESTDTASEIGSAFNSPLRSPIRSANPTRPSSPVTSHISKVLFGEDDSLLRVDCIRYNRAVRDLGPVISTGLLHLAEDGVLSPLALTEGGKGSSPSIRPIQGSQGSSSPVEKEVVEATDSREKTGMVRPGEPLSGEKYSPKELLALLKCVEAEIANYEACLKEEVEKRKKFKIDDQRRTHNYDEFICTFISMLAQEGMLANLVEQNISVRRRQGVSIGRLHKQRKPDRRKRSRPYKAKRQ
Mothers against decapentaplegic homolog 3, sequence (P84022 whole entry): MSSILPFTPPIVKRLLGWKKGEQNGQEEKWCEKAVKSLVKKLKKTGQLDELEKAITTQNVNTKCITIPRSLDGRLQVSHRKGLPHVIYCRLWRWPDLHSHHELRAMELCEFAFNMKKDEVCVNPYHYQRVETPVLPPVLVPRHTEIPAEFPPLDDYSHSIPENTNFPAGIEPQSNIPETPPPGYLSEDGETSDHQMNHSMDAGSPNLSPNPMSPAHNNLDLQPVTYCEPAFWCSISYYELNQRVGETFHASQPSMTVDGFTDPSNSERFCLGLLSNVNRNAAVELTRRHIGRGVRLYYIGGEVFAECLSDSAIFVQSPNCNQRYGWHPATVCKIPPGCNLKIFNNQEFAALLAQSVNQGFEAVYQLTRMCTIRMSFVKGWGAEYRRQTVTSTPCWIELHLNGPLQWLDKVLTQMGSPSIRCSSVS

With `COc1ccc(Cl)cc1N(CC(=O)N1CCCCC1)S(C)(=O)=O` the EC50 (Ion channel NompC) was > 29.9 µM (not active) and the EC50 (Mucolipin-3) was 2.38 µM (active).

With `O=C(NCCCN1CCCCCC1)C1CC(=O)N(CCc2ccccc2)C1` (centres undefined) the AC50 (Cytochrome P450 2C19) was “inconclusive”, the AC50 (Cytochrome P450 2D6) was 25.1 µM (inconclusive) and the IC50 [1] was 10.2 µM (active).

For `CCCCn1c(NCc2ccccc2NS(=O)(=O)c2ccc(C)cc2)nc2ccccc21`, the CC50 [2] was > 40 µM (active), the EC50 [3] was 2.21 µM (active) and the EC50 [4] was > 60 µM (not active).

In the case of `O=C(Oc1cccc(F)c1)c1sc2ccccc2c1Cl`, the IC50 (NADPH oxidase 1) was > 17 µM (not active).

With `Cc1ccc(-c2nnc(-c3ccc(NC(=O)c4ccco4)cc3)o2)cc1` the EC50 [5] was 46.1 µM (active), the EC50 (Estrogen receptor) was 10.4 µM (active) and the EC50 [6] was 28.4 µM (active).

For `O=C1NC(=O)N(c2ccccc2F)C(=O)/C1=C/c1ccc(Sc2nc3ccccc3[nH]2)o1`, the IC50 [7] was 219 µM (active), the IC50 (Large T antigen) was 19.5 µM (active) and the AC50 (Protein S100-A4) was 1.28 µM (active). The IC50 (Nonstructural protein 1) was > 100 µM (active).

For `COc1ccccc1C1CC(c2c(O)nc3ccc(Cl)cc3c2-c2ccccc2)=NN1S(C)(=O)=O` (centres undefined), the AC50 (Cytochrome P450 3A4) was 39.8 µM (inconclusive), the CC50 [8] was 25.2 µM (active) and the AC50 (Cytochrome P450 2D6) was 7.08 µM (inconclusive). For the same compound, the IC50 [9] was > 100 µM (active) and the CC50 (Vero) was 16 µM (active).

With `COc1cccc(NC(=O)c2ccccc2-c2nc(-c3ccc(Cl)cc3)no2)c1` the IC50 [10] was 9 µM (active).

For `O=C(O)c1cc(S(=O)(=O)Nc2ccc3c[nH]nc3c2)ccc1O`, the AC50 (Caspase-6) was 11.3 µM (active).

With `CCn1c(=O)cc(N2CCC3(CC2)OCCO3)[nH]c1=O` the IC50 [11] was > 100 µM (active).

From ChEMBL document CHEMBL1201862, “PubChem BioAssay data set” (2004)
